Literature values, collected in JP2008055197A (priority 2007, dated 2008).

O=[N+]([O-])OCC(CO[N+](=O)[O-])O[N+](=O)[O-] [ニトログリセリン]
solubility in ethyl alcohol, isopropyl alcohol and the like (ethyl alcohol, isopropyl alcohol and the like): 溶解する
solubility in water (water): 不溶
